Values after ≈ are worked out from the molar mass of the structure shown. Where a name gives a salt, the structure may show the parent alone. Read-outs that look alike come from different tables or passages of the source.
How the values were obtained:
Blutdruck = conditions: oral; from the literature (E. Muschöll 1967); cited from earlier work
Blutdruck der Katze = assay: Blood pressure increasing effect after intraduodenal application in anaesthetised cats; format: in vivo, Katzen; conditions: Felis catus, aqueous solution, anaesthetised cat; for change in vivo at 3 mg/kg: 3 mg/kg intraduodenal; for change in vivo at 10 mg/kg: 10 mg/kg intraduodenal; for change in vivo at 30 mg/kg: 30 mg/kg intraduodenal; for change in vivo at 1 mg/kg: 1 mg/kg intraduodenal; for change in vivo at 0.3 mg/kg: 0.3 mg/kg intraduodenal
Experimental: An 2-4 kg schweren, männlichen und weiblichen, narkotisierten Katzen [Chloralose (70 mg/kg) und Urethan 25 proz. (200 mg/kg)i.p.] wurden die Substanzen in wäßriger Lösung intraduodenal appliziert. Der Anstieg des systolischen und des diastolischen Blutdruckes wird in Prozenten des Ausgangswertes angegeben. N bedeutet Anzahl der Versuchstiere pro Versuch.

[1] = Minimum solubility in water; conditions: for Mindestlöslichkeit in Wasser: Tab. 1, minimum solubility (lower bound) of the salts in water; for solubility: water
[2] = read-out: Diastol. Blutdruck (Anstieg)
[3] = read-out: Systol. Blutdruck (Anstieg)

Compound	change in vivo at 3 mg/kg (Blutdruck der Katze; [2])	change in vivo at 3 mg/kg (Blutdruck der Katze; [3])	change in vivo at 10 mg/kg (Blutdruck der Katze; [2])	change in vivo at 10 mg/kg (Blutdruck der Katze; [3])	Mindestlöslichkeit in Wasser [1]	change in vivo at 1 mg/kg (Blutdruck der Katze; [2])	change in vivo at 1 mg/kg (Blutdruck der Katze; [3])	further results
NCC(O)c1cccc(O)c1 (racemic) [Norfenefrin, DL-1-(3'-Hydroxyphenyl)-2-aminoethanol, reference compound]	18 ± 6%	25 ± 9%	25 ± 5%	34 ± 7%	–	–	–	orale Wirksamkeit (Blutdruck): geringe orale Wirksamkeit; change in vivo at 30 mg/kg (Blutdruck der Katze; [2]): 37 ± 9%; change in vivo at 30 mg/kg (Blutdruck der Katze; [3]): 41 ± 7%
CC(=O)Oc1cccc(C(O)CN)c1.Cl (centres unmarked) [Verbindung 1, 1-(3'-Acetoxyphenyl)-2-aminoethanol-hydrochlorid]	29 ± 6%	35 ± 8%	48 ± 8%	59 ± 6%	50%	20 ± 10%	27 ± 10%	–
CCC(=O)Oc1cccc(C(O)CN)c1 (centres unmarked) [Verbindung 2]	–	–	–	–	50%	–	–	–
CCCC(=O)Oc1cccc(C(O)CN)c1 (centres unmarked) [Verbindung 3]	–	–	–	–	50%	–	–	–
CC(C)C(=O)Oc1cccc(C(O)CN)c1 (centres unmarked) [Verbindung 4]	–	–	–	–	50%	–	–	–
CCCCC(=O)Oc1cccc(C(O)CN)c1 (centres unmarked) [Verbindung 5]	29 ± 8%	42 ± 10%	–	–	50%	31 ± 8%	33 ± 7%	change in vivo at 0.3 mg/kg (Blutdruck der Katze; [2]): 19 ± 11%; change in vivo at 0.3 mg/kg (Blutdruck der Katze; [3]): 20 ± 10%
CC(C)CC(=O)Oc1cccc(C(O)CN)c1 (centres unmarked) [Verbindung 6]	–	–	–	–	50%	–	–	–
CC(C)(C)C(=O)Oc1cccc(C(O)CN)c1.Cl (centres unmarked) [Verbindung 7, 1-(3'-Pivaloyloxyphenyl)-2-aminoethanol-hydrochlorid]	29 ± 5%	37 ± 6%	74 ± 13%	79 ± 8%	50%	17 ± 6%	17 ± 7%	–
CCCCCC(=O)Oc1cccc(C(O)CN)c1 (centres unmarked) [Verbindung 8]	–	–	–	–	50%	–	–	–
CC(C)CCC(=O)Oc1cccc(C(O)CN)c1 (centres unmarked) [Verbindung 9]	–	–	–	–	50%	–	–	–
CCC(CC)C(=O)Oc1cccc(C(O)CN)c1 (centres unmarked) [Verbindung 10]	48 ± 11%	48 ± 11%	89 ± 14%	85 ± 11%	50%	19 ± 3%	25 ± 5%	–
CC(C)(C)CC(=O)Oc1cccc(C(O)CN)c1 (centres unmarked) [Verbindung 11]	–	–	–	–	50%	–	–	–
CCCCCCC(=O)Oc1cccc(C(O)CN)c1.Cl (centres unmarked) [Verbindung 12, 1-(3'-Heptanoyloxyphenyl)-2-aminoethanol-hydrochlorid]	65 ± 17%	70 ± 14%	51 ± 11%	61 ± 10%	50%	17 ± 7%	21 ± 8%	–
CCCC(CC)(CC)C(=O)Oc1cccc(C(O)CN)c1 (centres unmarked) [Verbindung 13]	–	–	–	–	50%	–	–	–
CCCCCCCCCCCC(=O)Oc1cccc(C(O)CN)c1 (centres unmarked) [Verbindung 14]	25 ± 8%	39 ± 9%	90 ± 25%	87 ± 15%	–	16 ± 4%	23 ± 6%	solubility [1]: 150 mg/mL (≈ 447 mM)
NCC(O)c1cccc(OC(=O)Cc2ccccc2)c1 (centres unmarked) [Verbindung 15]	36 ± 11%	50 ± 11%	81 ± 15%	88 ± 15%	50%	20 ± 4%	24 ± 3%	–
CC(C(=O)Oc1cccc(C(O)CN)c1)c1ccccc1 (centres unmarked) [Verbindung 16]	31 ± 8%	38 ± 12%	55 ± 13%	63 ± 9%	50%	10 ± 3%	20 ± 7%	–
CCC(C(=O)Oc1cccc(C(O)CN)c1)c1ccccc1 (centres unmarked) [Verbindung 17]	31 ± 6%	42 ± 9%	38 ± 6%	47 ± 10%	–	25 ± 7%	29 ± 7%	solubility [1]: 200 mg/mL (≈ 668 mM)
NCC(O)c1cccc(OC(=O)c2ccccc2)c1 (centres unmarked) [Verbindung 18]	–	–	–	–	50%	–	–	–
Cc1ccccc1C(=O)Oc1cccc(C(O)CN)c1 (centres unmarked) [Verbindung 19]	21 ± 6%	26 ± 7%	32 ± 11%	37 ± 7%	50%	15 ± 7%	17 ± 5%	–
Cc1ccc(C(=O)Oc2cccc(C(O)CN)c2)cc1 (centres unmarked) [Verbindung 20, 1-[3'-(4'-Methylbenzoyloxy)phenyl]-2-aminoethanol-hydrochlorid]	100 ± 24%	122 ± 25%	–	–	50%	26 ± 6%	28 ± 6%	change in vivo at 0.3 mg/kg (Blutdruck der Katze; [2]): 17 ± 10%; change in vivo at 0.3 mg/kg (Blutdruck der Katze; [3]): 20 ± 10%
CC(=O)NCC(O)c1cccc(O)c1 (centres unmarked) [Verbindung 21, reference compound]	–	–	–	–	–	–	–	solubility [1]: 100 mg/mL (≈ 512 mM)
CC(=O)NCC(OC(C)=O)c1cccc(O)c1 (centres unmarked) [Verbindung 22, reference compound]	–	–	–	–	–	–	–	solubility [1]: 12 mg/mL (≈ 50.6 mM)
CC(C)(C)C(=O)NCC(O)c1cccc(O)c1 (centres unmarked) [Verbindung 23, reference compound]	–	–	–	–	–	–	–	solubility [1]: 10 mg/mL (≈ 42.1 mM)
CC(C)(C)C(=O)NCC(OC(=O)C(C)(C)C)c1cccc(O)c1 (centres unmarked) [Verbindung 24, reference compound]	–	–	–	–	–	–	–	solubility [1]: 0.1 mg/mL (≈ 0.311 mM)
CC(C)(C)C(=O)NCC(OC(=O)C(C)(C)C)c1cccc(OC(=O)C(C)(C)C)c1 (centres unmarked) [Verbindung 25, reference compound]	–	–	–	–	–	–	–	solubility [1]: 0.1 mg/mL (≈ 0.247 mM)

From patent publication EP0024616A1, “1-(3'-Acyloxyphenyl)-2-aminoethanols, their acid addition salts, pharmaceutical compositions containing them and process for their preparation” (Klinge Pharma GmbH, priority 1979, dated 1981)
